The structures appear in SMILES notation. Activity calls are given as the source filed them. The rule behind the calls is not given here.

One may read the inhibition as the change of the read-out against control, counted positive when it falls.

The target of the assay is Kappa-type opioid receptor (Homo sapiens) (UniProt P41145). Put plainly: OPRK1 antagonists, confirmation, cell-based, fluorescence (AID 652082). The settings on record: OPRK1 cell line, fluorescence antagonist read-out; at 9 µM; hits give high values.
Chain of Kappa-type opioid receptor (Homo sapiens) (P41145 whole entry, looked up): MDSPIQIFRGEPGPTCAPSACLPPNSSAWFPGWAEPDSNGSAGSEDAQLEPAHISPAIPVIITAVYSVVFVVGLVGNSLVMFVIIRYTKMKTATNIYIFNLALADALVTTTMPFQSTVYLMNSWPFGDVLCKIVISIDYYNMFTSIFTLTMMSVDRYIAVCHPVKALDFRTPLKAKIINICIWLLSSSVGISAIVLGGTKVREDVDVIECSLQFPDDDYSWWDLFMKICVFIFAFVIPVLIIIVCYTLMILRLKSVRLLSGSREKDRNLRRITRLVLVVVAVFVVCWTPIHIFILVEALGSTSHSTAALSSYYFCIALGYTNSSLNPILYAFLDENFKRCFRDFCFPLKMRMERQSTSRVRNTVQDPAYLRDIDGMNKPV
Take `C=CCNC(=S)NNC(=O)c1oc2nc(-c3ccc(Cl)cc3)cc(-c3ccccc3)c2c1N`: the inhibition was 11.6% (inactive).
Next, `N#Cc1c(S/C=C(\O)c2cc3ccccc3o2)nc2c(c1C(F)(F)F)CCCC2`: 15.3% (inactive).
The result for `c1ccc(-c2cc3ncnc(NCc4ccc5c(c4)OCO5)c3s2)cc1` reads -5.98% (inactive).
Next, `Nc1c(C(=O)N/N=C/c2ccc3c(c2)OCO3)sc2nnc(-c3ccccc3)c(-c3ccccc3)c12`: 77.2%.
For the molecule `CSc1sc(C(=O)NC(=O)Nc2ccc(Cl)cc2)c2c1-c1nocc1CC2`, the inhibition was 15.4% (inactive).
Next, `CS(=O)(=O)/C(C#N)=C\c1ccc(Cl)s1`: 4.17% (inactive); `COC(=O)c1cnn(-c2ccc(Cl)cc2)c1C=C(C#N)C#N`: 3.67% (inactive); `CSc1ccc(/C=C/c2onc(C)c2[N+](=O)[O-])s1`: 23% (inactive).
As for `NC(=NC(=O)c1cccc(C(F)(F)F)c1)c1ccc(C(F)(F)F)cn1`, the inhibition was 41.2% (inactive).
The result for `COC(=O)c1ccc(/C=C2\C(=O)Nc3ccccc32)n1-c1ccc(F)cc1` reads 12% (inactive).
The result for `CCOC(=O)C1CCN(Cc2cccc(NC(=O)c3cccs3)c2)CC1` reads 0.7% (inactive); that for `CC(=O)N1CCC(C(=O)O/N=C(\N)c2ccc(Cl)cc2)CC1`, -11.1% (inactive).
Next, `S=C(NNc1c(Cl)cncc1Cl)Nc1ccc(Cl)cc1Cl`: 51.8% (inactive).
Regarding `O=C(Nc1ccc([N+](=O)[O-])cc1)Nc1csc(-c2cccnc2)n1`, the inhibition was -2.3% (inactive).
In the case of `N#Cc1cccc(C#N)c1Oc1ccc(N)cc1`, the inhibition was -6.85% (inactive).
On to `CCOC(=O)c1cn[nH]c1NC(=S)Nc1cccc(C(F)(F)F)c1`, for which the inhibition was 46.6% (inactive).
As for `CC1COC(c2cccc([N+](=O)[O-])c2)N1` (stereo unspecified), the inhibition was -9.85% (inactive).
For the molecule `CCOC(=O)[C@@H](N)CCSC`, the inhibition was -3.43% (inactive).
`CC(=O)Nc1onc(C)c1-c1nc(-c2ccc(Cl)cc2Cl)cs1`: the inhibition is -1.54% (inactive).
As to `COc1cccc(/C=C(\C#N)c2ccc([N+](=O)[O-])cc2)c1OC`, the inhibition is 34.5% (inactive).
As to `CCN(CC)c1ccc(/C=C/c2ccc([N+](=O)[O-])cc2C#N)cc1`, the inhibition was 49.6% (inactive).
In the case of `CC(=O)c1sc2nc(-c3cccs3)cc(C(F)(F)F)c2c1N`, the inhibition was 11.3% (inactive).
The result for `CC(CCC(C)OC(=O)c1ccccc1C(=O)O)OC(=O)c1ccccc1C(=O)O` (stereo unspecified) reads 7.76% (inactive).
The result for `O=[N+]([O-])c1ccc(-c2ccc(/C=N/Nc3ccccc3)o2)cc1` reads 82.8%.
The result for `COc1ccc([N+](=O)[O-])c(S(=O)(=O)c2ccc(Cl)cc2)n1` reads 18.1% (inactive); that for `CCOC(=O)c1cc(C(=O)OC)c(C)nc1N1CCC(NC2CCCCC2O)CC1` (stereo unspecified), 95.2%; that for `CN(C)c1ccc(-n2nnnc2SCc2ccc(Cl)cc2)cc1`, 26% (inactive).
On to `O=c1c2cc(-c3ccccc3)sc2nnn1/N=C/c1cccs1`, for which the inhibition is 3.84% (inactive).
Regarding `COc1ccc(OS(=O)(=O)c2sc(Br)cc2Br)cc1`, the inhibition is 36.2% (inactive).
The result for `O=[N+]([O-])c1ccc(-c2ccc(/C=N/NC(=S)Nc3cccc(F)c3)o2)cc1` reads 60.3%.
The result for `O=C(c1cnn(-c2ccc(Cl)cc2)c1C(F)(F)F)N1CCN(c2ncnc3ccsc23)CC1` reads 79%; that for `Clc1ccc2c(Nc3ccc4c(c3)OCO4)ccnc2c1`, 30% (inactive).
Turning to `O=C(N/C(=C\c1ccc(-c2ccc([N+](=O)[O-])cc2)o1)c1nc2ccccc2[nH]1)c1ccccc1`, the inhibition is 58.7%.
The result for `O=[N+]([O-])c1ccc(N/N=C2\CCOc3ccc(F)cc32)cc1` reads 25.4% (inactive); that for `O=C(/C=C/c1cc(-c2ccccc2)c(C(F)(F)F)s1)c1cccs1`, 20.3% (inactive).
For `COc1cccc(C(=O)c2sc3nsc(SCc4ccc(F)cc4)c3c2N)c1`, the inhibition is 2.74% (inactive).
Next, `N#Cc1cccnc1NNC(=O)COCC(=O)O`: 62.5%; `O=[N+]([O-])c1c(Sc2ccc(Cl)cc2)ccc2nsnc12`: 37.2% (inactive).
Consider `Brc1ccc(-c2csc(Nc3ccncc3)n2)cc1`, for which the inhibition was 34.9% (inactive).
The result for `CCCCCC[n+]1ccccc1/C=C/c1ccc(N(C)C)cc1` reads 79.5%; that for `COc1cc([N+](=O)[O-])c(OC)cc1SCc1n[nH]c(=S)n1-c1ccc(C)cc1`, 73.3%; that for `Clc1ccc2nc3c(nc2c1)Nc1ccccc1S3`, 80.7%.
Next, `COc1ccccc1C1CCN(Cc2ccc3c(c2)CCC(C)(C)O3)CC1`: 59.5%; `CCCCNc1ccc2c3c(cccc13)C(=O)N(CCCC)C2=O`: 76.8%.
Next, `Nc1c(C(=O)c2ccccc2)sc2nsc(SCCN3CCCC3)c12`: 43.2% (inactive); `Cn1c(=O)c2cc3cc(Cl)ccc3nc2c2c(=O)n(-c3ccccc3)c(=O)n(-c3ccccc3)c21`: 58.9%; `CCCCCCCCCCCC(=O)ON1C(=O)CCC1=O`: 36.2% (inactive).
As for `COC(=O)c1cc(-c2ccc(OC)cc2)c(-c2ccc(OC)cc2)s1`, the inhibition is 68.6%.
`O=[N+]([O-])c1ccc(N2CCc3ccccc32)cc1`: the inhibition was 17.4% (inactive).
With `O=[N+]([O-])c1ccc(C2=NN(c3ccccc3)C(c3ccco3)C2)cc1` (stereo unspecified), the inhibition is 82.9%.
Turning to `O=C(NNC(=O)C(F)(F)F)c1ccc[nH]1`, the inhibition was 9.13% (inactive).
The result for `Cc1ccc(/C=c2\sc3nc4ccccc4n3c2=O)o1` reads 5.32% (inactive); that for `CN(C)c1cccc2c1c(NC(=O)Nc1ccc(OCc3ccccc3)cc1)nn2C`, 58.2%; that for `CCOC(=O)C1CCN(Cc2cccc(NC(=O)c3ccco3)c2)CC1`, 35.5% (inactive).
Turning to `Oc1c(Cl)cc(Cl)cc1C1Nc2cc(Cl)c(C(F)(F)F)cc2N1` (stereo unspecified), the inhibition is 58.8%.
Next, `COc1ccccc1NC(=O)NCCN1CCN(Cc2ccccc2)CC1`: 59.6%; `O=C(Nc1ccc(Cl)cc1Cl)c1cc([N+](=O)[O-])cc2c1-c1ccc([N+](=O)[O-])cc1C2=O`: 59.2%.
The result for `O=[N+]([O-])c1ccc(N/N=C/c2ccc(-c3cccs3)s2)nc1` reads 71.3%.
Next, `COC(=O)/C=C1\SC(=Nc2ccc(Cl)cc2)N(c2ccc(Cl)cc2)C1=O`: 57.8%.
As to `CN(C)c1cc(NC(=O)Nc2ccccc2)c2ccccc2n1`, the inhibition is 43.7% (inactive).
The result for `O=C(O)C(F)(F)C(F)(F)C(=O)NCc1cccc(Cl)c1` reads 0.14% (inactive); that for `CCOC(=O)c1ccc(N2CC3CCCCN3C2c2cccc(OC)c2O)cc1` (stereo unspecified), 49% (inactive).
On to `O=C1c2ccc(Cl)c3c(N4CCSCC4)ccc(c23)C(=O)N1c1ccccc1`, for which the inhibition is 9.35% (inactive).
In the case of `C=CCn1c(-c2sc3nnc(-c4ccccc4)c(-c4ccccc4)c3c2N)n[nH]c1=S`, the inhibition was 30.5% (inactive).
The result for `C#Cc1cccc(NC(=O)c2sc3nc4c(c(-c5cccs5)c3c2N)CCCC4)c1` reads 31.7% (inactive).
On to `O=C(Nc1ccc(F)c(Cl)c1)c1cc(Br)ccc1O`, for which the inhibition was 62.9%.
